Assay results taken from PubChem BioAssay (NCI).
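All cell lines were grown in 96-well plates and treated with compound for 48 hours. The concentration for full growth arrest is given as TGI.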

Experiments:
Experiment in all cases: NCI anticancer screen, dose series, 48 h
SF-539 CNS = test system: SF-539 CNS
MDA-N = test system: MDA-N
HS 578T breast = test system: HS 578T breast
EKVX NSCLC = test system: EKVX NSCLC
SK-MEL-2 melanoma = test system: SK-MEL-2 melanoma
IGROV1 ovarian = test system: IGROV1 ovarian
MDA-MB-435 = test system: MDA-MB-435
HOP-92 NSCLC = test system: HOP-92 NSCLC
NCI-H522 lung = test system: NCI-H522 lung
K-562 leukemia = test system: K-562 leukemia
ACHN renal = test system: ACHN renal
OVCAR-5 ovarian = test system: OVCAR-5 ovarian
SK-MEL-28 melanoma = test system: SK-MEL-28 melanoma
OVCAR-8 ovarian = test system: OVCAR-8 ovarian
CAKI-1 renal = test system: CAKI-1 renal
T-47D breast = test system: T-47D breast
COLO 205 colon = test system: COLO 205 colon
UACC-62 melanoma = test system: UACC-62 melanoma
SR leukemia = test system: SR leukemia
NCI-H23 lung = test system: NCI-H23 lung
786-0 renal = test system: 786-0 renal
NCI-H460 lung = test system: NCI-H460 lung
DU-145 prostate = test system: DU-145 prostate
KM12 colon = test system: KM12 colon
PC-3 prostate = test system: PC-3 prostate
SF-295 CNS = test system: SF-295 CNS
MALME-3M melanoma = test system: MALME-3M melanoma
HL-60(TB) leukemia = test system: HL-60(TB) leukemia
SW-620 colon = test system: SW-620 colon
LOX IMVI melanoma = test system: LOX IMVI melanoma
UO-31 renal = test system: UO-31 renal
BT-549 breast = test system: BT-549 breast
RPMI-8226 leukemia = test system: RPMI-8226 leukemia
SN12C renal = test system: SN12C renal
HCT-15 colon = test system: HCT-15 colon
HT29 colon = test system: HT29 colon
SNB-75 CNS = test system: SNB-75 CNS
HCC-2998 colon = test system: HCC-2998 colon
RXF 393 renal = test system: RXF 393 renal
TK-10 renal = test system: TK-10 renal
MDA-MB-231 breast = test system: MDA-MB-231 breast
OVCAR-4 ovarian = test system: OVCAR-4 ovarian
A498 renal = test system: A498 renal
UACC-257 melanoma = test system: UACC-257 melanoma
CCRF-CEM leukemia = test system: CCRF-CEM leukemia
HOP-62 NSCLC = test system: HOP-62 NSCLC
U251 CNS = test system: U251 CNS
HCT-116 colon = test system: HCT-116 colon
MOLT-4 leukemia = test system: MOLT-4 leukemia
SK-MEL-5 melanoma = test system: SK-MEL-5 melanoma
A549 NSCLC = test system: A549 NSCLC
OVCAR-3 ovarian = test system: OVCAR-3 ovarian
NCI/ADR-RES ovarian = test system: NCI/ADR-RES ovarian
NCI-H226 lung = test system: NCI-H226 lung
SF-268 CNS = test system: SF-268 CNS
SK-OV-3 ovarian = test system: SK-OV-3 ovarian
M14 melanoma = test system: M14 melanoma
MCF7 breast = test system: MCF7 breast
SNB-19 CNS = test system: SNB-19 CNS

## CS(=O)(=O)Nc1ccc2c(c1)N(S(C)(=O)=O)CC2COS(C)(=O)=O (centres undefined)
SF-539 CNS
  TGI: > 100 µM
MDA-N
  TGI: > 100 µM
HS 578T breast
  TGI: > 100 µM
EKVX NSCLC
  TGI: > 100 µM
SK-MEL-2 melanoma
  TGI: 71.7 µM
IGROV1 ovarian
  TGI: > 100 µM
MDA-MB-435
  TGI: > 100 µM
HOP-92 NSCLC
  TGI: > 100 µM
NCI-H522 lung
  TGI: 43.1 µM
K-562 leukemia
  TGI: > 100 µM
ACHN renal
  TGI: > 100 µM
OVCAR-5 ovarian
  TGI: > 100 µM
SK-MEL-28 melanoma
  TGI: > 100 µM
OVCAR-8 ovarian
  TGI: > 100 µM
CAKI-1 renal
  TGI: > 100 µM
T-47D breast
  TGI: > 100 µM
COLO 205 colon
  TGI: > 100 µM
UACC-62 melanoma
  TGI: > 100 µM
SR leukemia
  TGI: 93.2 µM
NCI-H23 lung
  TGI: > 100 µM
786-0 renal
  TGI: > 100 µM
NCI-H460 lung
  TGI: > 100 µM
DU-145 prostate
  TGI: > 100 µM
KM12 colon
  TGI: > 100 µM
PC-3 prostate
  TGI: > 100 µM
SF-295 CNS
  TGI: > 100 µM
MALME-3M melanoma
  TGI: > 100 µM
HL-60(TB) leukemia
  TGI: 88.3 µM
SW-620 colon
  TGI: > 100 µM
LOX IMVI melanoma
  TGI: > 100 µM
UO-31 renal
  TGI: > 100 µM
BT-549 breast
  TGI: > 100 µM
RPMI-8226 leukemia
  TGI: 81.4 µM
SN12C renal
  TGI: > 100 µM
HCT-15 colon
  TGI: > 100 µM
HT29 colon
  TGI: > 100 µM
SNB-75 CNS
  TGI: > 100 µM
HCC-2998 colon
  TGI: > 100 µM
RXF 393 renal
  TGI: 41.5 µM
TK-10 renal
  TGI: > 100 µM
MDA-MB-231 breast
  TGI: > 100 µM
OVCAR-4 ovarian
  TGI: > 100 µM
A498 renal
  TGI: > 100 µM
UACC-257 melanoma
  TGI: > 100 µM
CCRF-CEM leukemia
  TGI: > 100 µM
HOP-62 NSCLC
  TGI: 70.9 µM
U251 CNS
  TGI: 59.2 µM
HCT-116 colon
  TGI: > 100 µM
MOLT-4 leukemia
  TGI: > 100 µM
SK-MEL-5 melanoma
  TGI: 40.7 µM
A549 NSCLC
  TGI: > 100 µM
OVCAR-3 ovarian
  TGI: > 100 µM
NCI/ADR-RES ovarian
  TGI: > 100 µM
NCI-H226 lung
  TGI: > 100 µM

## CC1(C)OCC(C2OC(OC(=O)c3ccc(C(F)(F)F)cc3)C3OC(C)(C)OC23)O1 (centres undefined)
SF-539 CNS
  TGI: > 77.5 µM
MDA-N
  TGI: > 77.5 µM
SF-268 CNS
  TGI: > 77.5 µM
EKVX NSCLC
  TGI: > 77.5 µM
SK-MEL-2 melanoma
  TGI: > 77.5 µM
IGROV1 ovarian
  TGI: > 77.5 µM
MDA-MB-435
  TGI: > 77.5 µM
NCI-H522 lung
  TGI: > 77.5 µM
K-562 leukemia
  TGI: > 77.5 µM
ACHN renal
  TGI: > 77.5 µM
SK-OV-3 ovarian
  TGI: > 77.5 µM
OVCAR-5 ovarian
  TGI: > 77.5 µM
SK-MEL-28 melanoma
  TGI: > 77.5 µM
OVCAR-8 ovarian
  TGI: > 77.5 µM
M14 melanoma
  TGI: > 77.5 µM
CAKI-1 renal
  TGI: > 77.5 µM
COLO 205 colon
  TGI: > 77.5 µM
UACC-62 melanoma
  TGI: > 77.5 µM
SR leukemia
  TGI: > 77.5 µM
NCI-H23 lung
  TGI: > 77.5 µM
786-0 renal
  TGI: > 77.5 µM
NCI-H460 lung
  TGI: > 77.5 µM
DU-145 prostate
  TGI: > 77.5 µM
KM12 colon
  TGI: > 77.5 µM
PC-3 prostate
  TGI: > 77.5 µM
SF-295 CNS
  TGI: > 77.5 µM
MALME-3M melanoma
  TGI: > 77.5 µM
SW-620 colon
  TGI: > 77.5 µM
LOX IMVI melanoma
  TGI: > 77.5 µM
UO-31 renal
  TGI: > 77.5 µM
BT-549 breast
  TGI: > 77.5 µM
RPMI-8226 leukemia
  TGI: > 77.5 µM
SN12C renal
  TGI: > 77.5 µM
HCT-15 colon
  TGI: > 77.5 µM
HT29 colon
  TGI: > 77.5 µM
SNB-75 CNS
  TGI: > 77.5 µM
HCC-2998 colon
  TGI: > 77.5 µM
RXF 393 renal
  TGI: > 77.5 µM
TK-10 renal
  TGI: > 77.5 µM
MCF7 breast
  TGI: > 77.5 µM
MDA-MB-231 breast
  TGI: > 77.5 µM
SNB-19 CNS
  TGI: > 77.5 µM
OVCAR-4 ovarian
  TGI: > 77.5 µM
A498 renal
  TGI: > 77.5 µM
UACC-257 melanoma
  TGI: > 77.5 µM
CCRF-CEM leukemia
  TGI: > 77.5 µM
HOP-62 NSCLC
  TGI: > 77.5 µM
U251 CNS
  TGI: > 77.5 µM
HCT-116 colon
  TGI: > 77.5 µM
MOLT-4 leukemia
  TGI: > 77.5 µM
SK-MEL-5 melanoma
  TGI: > 77.5 µM
A549 NSCLC
  TGI: > 77.5 µM
OVCAR-3 ovarian
  TGI: > 77.5 µM
NCI/ADR-RES ovarian
  TGI: > 77.5 µM
NCI-H226 lung
  TGI: > 77.5 µM
